Where two headings read alike, the source gives them in different places.

Our source for the Ki and EC50 values is PMC6333893, “Exquisite ligand stereoselectivity of a Drosophila juvenile hormone receptor contrasts with its broad agonist repertoire” (The Journal of Biological Chemistry, 2018).

Test [1] has as its target T1, Gce (germ cell-expressed), Myc-tagged, in vitro translated (Drosophila melanogaster, UniProt Q9VXW7).
T1 sequence (Q9VXW7 271-959): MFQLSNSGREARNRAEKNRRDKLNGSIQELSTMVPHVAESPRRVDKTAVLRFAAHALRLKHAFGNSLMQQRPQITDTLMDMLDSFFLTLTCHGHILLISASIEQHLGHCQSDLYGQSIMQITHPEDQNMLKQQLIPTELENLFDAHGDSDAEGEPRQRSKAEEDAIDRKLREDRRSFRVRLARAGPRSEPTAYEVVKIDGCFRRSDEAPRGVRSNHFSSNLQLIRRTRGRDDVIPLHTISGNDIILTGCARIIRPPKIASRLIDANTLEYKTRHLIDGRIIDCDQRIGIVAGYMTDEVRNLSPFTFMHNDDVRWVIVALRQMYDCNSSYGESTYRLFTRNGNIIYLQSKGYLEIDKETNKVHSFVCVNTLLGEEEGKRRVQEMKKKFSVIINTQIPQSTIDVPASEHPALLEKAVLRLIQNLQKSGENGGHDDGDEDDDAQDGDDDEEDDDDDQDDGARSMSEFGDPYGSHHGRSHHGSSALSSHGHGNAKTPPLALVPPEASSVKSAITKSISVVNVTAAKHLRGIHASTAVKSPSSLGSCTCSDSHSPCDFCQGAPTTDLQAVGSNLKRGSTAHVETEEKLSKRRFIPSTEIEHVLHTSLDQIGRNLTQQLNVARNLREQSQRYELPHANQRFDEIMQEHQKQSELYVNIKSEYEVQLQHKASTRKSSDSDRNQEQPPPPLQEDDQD
Briefly: competition against R,S-[3H]JH III, glass fiber filter. In kind it is binding.

In test [2] the target is T2, endogenous Gce in Drosophila S2 cells (JHRE-luc) (Drosophila melanogaster, UniProt Q9VXW7).
T2 construct: endogenous Gce of S2 cells, transfected D. melanogaster Tai and JHRE-luc reporter
The test can be described thus: JHRE-luc reporter activation in S2 cells. It counts as cell-based. Particulars: 8 h, transfected Tai, agonist.

The mark [3] stands for this setting: read-out: Affinity of ligand binding to Gce (Ki)^a.

T2 sequence (Q9VLD9 1-2026 partner, one chain of several): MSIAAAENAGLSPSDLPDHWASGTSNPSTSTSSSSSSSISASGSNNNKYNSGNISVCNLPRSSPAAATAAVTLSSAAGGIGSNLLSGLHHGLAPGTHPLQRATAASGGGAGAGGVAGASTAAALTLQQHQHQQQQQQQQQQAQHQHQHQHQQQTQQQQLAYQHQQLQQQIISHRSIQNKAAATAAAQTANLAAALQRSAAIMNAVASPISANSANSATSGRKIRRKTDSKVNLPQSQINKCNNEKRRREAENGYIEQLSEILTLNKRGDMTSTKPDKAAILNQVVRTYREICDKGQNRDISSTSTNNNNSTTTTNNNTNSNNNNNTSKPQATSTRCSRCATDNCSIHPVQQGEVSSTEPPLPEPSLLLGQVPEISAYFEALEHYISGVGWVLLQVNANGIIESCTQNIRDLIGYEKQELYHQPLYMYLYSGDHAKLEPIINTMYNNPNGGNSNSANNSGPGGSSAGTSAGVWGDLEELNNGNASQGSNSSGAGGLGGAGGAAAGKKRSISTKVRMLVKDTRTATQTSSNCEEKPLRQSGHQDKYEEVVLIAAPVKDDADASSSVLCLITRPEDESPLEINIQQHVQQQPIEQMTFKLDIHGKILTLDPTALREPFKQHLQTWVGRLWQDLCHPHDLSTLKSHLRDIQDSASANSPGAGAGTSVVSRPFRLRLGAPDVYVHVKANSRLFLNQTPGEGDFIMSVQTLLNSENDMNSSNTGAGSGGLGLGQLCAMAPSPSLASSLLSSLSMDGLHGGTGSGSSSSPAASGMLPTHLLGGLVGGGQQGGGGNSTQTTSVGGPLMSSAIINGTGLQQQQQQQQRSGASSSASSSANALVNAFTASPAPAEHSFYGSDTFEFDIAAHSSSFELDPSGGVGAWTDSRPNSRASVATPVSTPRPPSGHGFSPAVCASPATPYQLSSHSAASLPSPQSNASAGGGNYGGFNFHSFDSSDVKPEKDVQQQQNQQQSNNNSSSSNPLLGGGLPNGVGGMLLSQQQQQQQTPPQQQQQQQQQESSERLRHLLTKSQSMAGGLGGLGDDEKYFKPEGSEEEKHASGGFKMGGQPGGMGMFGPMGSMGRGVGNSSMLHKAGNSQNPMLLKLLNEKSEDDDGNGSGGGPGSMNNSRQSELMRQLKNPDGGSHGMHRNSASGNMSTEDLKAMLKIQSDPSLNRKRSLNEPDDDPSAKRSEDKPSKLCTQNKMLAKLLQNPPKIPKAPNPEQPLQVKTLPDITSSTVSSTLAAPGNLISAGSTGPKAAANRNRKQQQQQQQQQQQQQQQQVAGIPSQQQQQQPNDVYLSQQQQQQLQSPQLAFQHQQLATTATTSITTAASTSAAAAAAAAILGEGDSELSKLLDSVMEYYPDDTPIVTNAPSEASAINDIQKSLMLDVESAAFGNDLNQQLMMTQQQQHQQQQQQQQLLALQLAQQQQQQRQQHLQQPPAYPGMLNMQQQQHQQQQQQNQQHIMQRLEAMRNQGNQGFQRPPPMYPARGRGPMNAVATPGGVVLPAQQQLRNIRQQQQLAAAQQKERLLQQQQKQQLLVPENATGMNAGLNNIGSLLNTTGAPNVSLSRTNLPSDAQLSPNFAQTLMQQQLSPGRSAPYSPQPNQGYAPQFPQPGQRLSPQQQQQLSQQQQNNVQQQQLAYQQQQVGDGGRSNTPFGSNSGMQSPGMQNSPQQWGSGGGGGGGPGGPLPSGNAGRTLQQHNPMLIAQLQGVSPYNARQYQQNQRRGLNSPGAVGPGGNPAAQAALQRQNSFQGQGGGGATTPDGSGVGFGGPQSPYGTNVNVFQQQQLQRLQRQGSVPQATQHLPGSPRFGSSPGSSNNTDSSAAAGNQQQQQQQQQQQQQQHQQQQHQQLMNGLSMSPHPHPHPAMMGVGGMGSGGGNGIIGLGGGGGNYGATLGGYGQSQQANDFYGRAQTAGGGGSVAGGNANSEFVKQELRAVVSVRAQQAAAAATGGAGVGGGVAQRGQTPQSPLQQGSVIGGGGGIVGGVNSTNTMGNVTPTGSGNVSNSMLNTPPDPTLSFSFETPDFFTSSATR

As for `CC/C(=C\CC/C(C)=C\C(=O)OC)CC[C@H]1O[C@@]1(C)CC` [S-(Z,E)-JH I], the Ki in test [1] (setting [3]) stood at 614 nM. For the compound `COC(=O)/C=C(\C)CC/C=C(\C)CCC1OC1(C)C` (centres unmarked) [R,S-JH III], in test [1] (read-out: Ki), the inhibition constant (Ki) came out at 11 ± 2.2 nM. Besides, in test [2] (racemic compound, read-out: EC50), the 50% effective concentration (EC50) was found to be 210 ± 140 nM.

Consider `COC(=O)/C=C(\C)CC/C=C(\C)CC[C@@H]1OC1(C)C` [S-JH III], for which, in test [1] (read-out: Ki), the Ki worked out at 38.3 ± 5.2 nM. This compound returned an EC50 in test [2] (unreliable (no saturation reached)) of 4460 ± 2950 nM. Turning to `CCOC(=O)NCCOc1ccc(Oc2ccccc2)cc1` [fenoxycarb, ethyl N-[2-(4-phenoxyphenoxy)ethyl]carbamate], in test [1] (read-out: Ki), the inhibition constant (Ki) is 2.8 ± 1.1 nM. For the same compound, the EC50 in test [2] (read-out: EC50) was 2.29 ± 0.65 nM.

`COC(=O)/C=C(\C)CC/C=C(\C)CCC=C(C)C` [MF]: the inhibition constant Ki in test [1] (read-out: Ki) came out at 89.8 ± 26.7 nM. Also, the EC50 in test [2] (read-out: EC50) is 4430 ± 950 nM. Regarding `CC/C(=C\CC/C(C)=C/C(=O)OC)CC[C@H]1O[C@@]1(C)CC` [S-(E,E)-JH I], in test [1] (read-out: Ki), the Ki worked out at 13.8 ± 5.1 nM. Also, the EC50 in test [2] (read-out: EC50) was 370 ± 220 nM.

For the compound `CC/C(=C/CC/C(C)=C/C(=O)OC)CC[C@H]1O[C@]1(C)CC` [R-(E,Z)-JH I], the inhibition constant (Ki) in test [1] (setting [3]) was 479 nM.

As for `COC(=O)/C=C(\C)CC/C=C(\C)CC[C@H]1OC1(C)C` [R-JH III], in test [1] (read-out: Ki), the Ki is 4.8 ± 1.3 nM. Further, in test [2] (read-out: EC50), the EC50 amounted to 930 ± 380 nM.

Consider `CC/C(=C/CC/C(C)=C\C(=O)OC)CC[C@H]1O[C@@]1(C)CC` [S-(Z,Z)-JH I], for which the Ki in test [1] (setting [3]) was determined as 22600 nM.

As for `CCOC(=O)NCCOc1ccc(CC2CCCCC2O)cc1` (centres unmarked) [W330, Ethyl N-{2-{4-[(2-hydroxycyclohexyl)methyl]phenoxy}ethyl}carbamate], the inhibitory constant (Ki) in test [1] (read-out: Ki) came out at 17.4 ± 5.7 nM. Further, in test [2] (read-out: EC50), the EC50 stood at 5.42 ± 0.41 nM. For `CC/C(C)=C/CC/C(=C/CC/C(C)=C/C(=O)OC)CC` [deoxy-JH I, methyl (2E,6E,10E)-7-ethyl-3,11-dimethyltrideca-2,6,10-trienoate], the Ki in test [1] (read-out: Ki) was found to be 143 ± 45 nM. `CC/C(=C/CC/C(C)=C/C(=O)OC)CC[C@H]1O[C@@]1(C)CC` [S-(E,Z)-JH I]: the Ki in test [1] (setting [3]) is 447 nM. For `COC(=O)/C=C(\C)CCC1OC1(C)CCC1OC1(C)C` (centres unmarked) [JHB3], in test [1] (read-out: Ki), the Ki came to 83.3 ± 40.8 nM. Further, the concentration giving a half-maximal response (EC50) in test [2] (read-out: EC50) was 110 ± 10 nM.

`CC/C(=C\CC/C(C)=C\C(=O)OC)CC[C@H]1O[C@]1(C)CC` [R-(Z,E)-JH I]: in test [1] (setting [3]), the inhibition constant Ki stood at 2400 nM. Turning to `CC/C(=C/CC/C(C)=C\C(=O)OC)CC[C@H]1O[C@]1(C)CC` [R-(Z,Z)-JH I], the Ki in test [1] (setting [3]) worked out at 28900 nM.
